Patent publication US6469120B1, “Water-stabilized organosilane compounds and methods for using the same” (BioShield Technologies, Inc., priority 1997, dated 2002)
Values belong to the compound of their own block, whether it stands above or below them.

Key:
[1] = Stabilization of aqueous Dow Corning 5772 siloxane solutions by polyols, clarity monitored over time; type: physicochemical
Protocol: However, those skilled in the art will recognize that for practicality and commercial applications, the longer the period for which a stable composition can be achieved the better. Accordingly, a stock of solutions of known concentrations of the stabilizer is prepared in deionized water. A known amount of the solution, and in some cases additional deionized water and the siloxane were mixed in a vial. The vial was sealed with parafilm to prevent evaporation, and stored at ambient temperature.

[2] = no stabilizer; cited from earlier work
[3] = 5% siloxane solution with 0.94% to 19% polyol, ambient temperature

- time solution remained clear [1, 3]: at least seven
- time solution remained clear ([1]; another sample at approximately 5% active siloxane): at least eight
SMILES: OC[C@H]1O[C@@](CO)(O[C@H]2O[C@H](CO)[C@@H](O)[C@H](O)[C@H]2O)[C@@H](O)[C@@H]1O [sucrose]

- time solution remained clear [1, 3]: seven
- solubility of polyol in the siloxane solution ([1]; high mannitol concentration, 5% siloxane solution): not completely soluble
SMILES: OC[C@@H](O)[C@@H](O)[C@H](O)[C@H](O)CO [mannitol]

SMILES: CCCCCCCCCCCCCCCCCC[N+](C)(C)CCC[Si](OC)(OC)OC.[Cl-] [3-(trimethoxysilyl)propyl-dimethyloctadecyl ammonium chloride]
- time until mixture with water begins to lose effectiveness [2]: four to eight

- stabilization of siloxane solution ([1]; tannic acid siloxane solution): not stabilized to any significant degree
SMILES: O=C(OC[C@H]1O[C@@H](OC(=O)c2cc(O)c(O)c(OC(=O)c3cc(O)c(O)c(O)c3)c2)[C@H](OC(=O)c2cc(O)c(O)c(OC(=O)c3cc(O)c(O)c(O)c3)c2)[C@@H](OC(=O)c2cc(O)c(O)c(OC(=O)c3cc(O)c(O)c(O)c3)c2)[C@@H]1OC(=O)c1cc(O)c(O)c(OC(=O)c2cc(O)c(O)c(O)c2)c1)c1cc(O)c(O)c(OC(=O)c2cc(O)c(O)c(O)c2)c1 [tannic acid]

- time solution remained clear ([1]; 10% siloxane solution with 0.85% to 17% L-ascorbic acid): at least five
- clarity of solution after two days ([1]; as much as 18% siloxane with as little as 0.79% L-ascorbic acid): remained clear
SMILES: O=C1O[C@H]([C@@H](O)CO)C(O)=C1O [L-ascorbic acid]

SMILES: O=CC=O [glyoxal]
- time solution remained clear ([1]; 9% siloxane with 4.1% to 18% glyoxal, aqueous): at least three
